According to patent US7294648B2, “Anthranyl derivatives having an anticholecystokinin activity (anti-cck-1), a process for their preparation, and pharmaceutical use thereof” (Rottapharm S.p.A., priority 2002, dated 2007):

Assays:
[1] = molecular target: T1, CCK-1 receptors (Rattus norvegicus, UniProt P30551); assay: Inhibition of binding of [125I]-BH-CCK-8 to isolated rat pancreatic acini; details: for IC50: 30 minutes at 37° C., at least 3 experiments, read-out: IC50, inhibition of binding of [125I]-BH-CCK-8 to isolated rat pancreatic acini
T1 construct: The pancreatic acini obtained from the outbred male rat pancreas of the Sprague Dawley strain; from tissue; host or cells: isolated pancreatic acini of male Sprague Dawley rats
T1 sequence (P30551 1-444): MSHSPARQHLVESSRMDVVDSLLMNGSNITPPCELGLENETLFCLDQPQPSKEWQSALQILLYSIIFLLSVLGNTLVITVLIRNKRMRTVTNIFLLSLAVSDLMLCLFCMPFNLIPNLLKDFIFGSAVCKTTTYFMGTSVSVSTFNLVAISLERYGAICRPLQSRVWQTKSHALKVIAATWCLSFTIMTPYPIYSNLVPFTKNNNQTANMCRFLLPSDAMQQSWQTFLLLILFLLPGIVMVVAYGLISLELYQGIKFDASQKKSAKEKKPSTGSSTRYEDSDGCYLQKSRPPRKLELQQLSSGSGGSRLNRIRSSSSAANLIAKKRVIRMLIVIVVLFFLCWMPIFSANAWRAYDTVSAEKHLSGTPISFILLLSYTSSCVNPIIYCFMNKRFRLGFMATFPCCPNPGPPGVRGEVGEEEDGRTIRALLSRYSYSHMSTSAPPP
Procedure: The pancreatic acini obtained from the outbred male rat pancreas of the Sprague Dawley strain, were incubated in the presence of radioactive tracers and the compound studied for 30 minutes at 37° C. After having discarded the supernatant, the radioactivity associated with the pellet was determined with a liquid scintillator. The specific binding was determined as the difference between the binding in the absence and in the presence of CCK-8, 1.10^−6M. […] The values of IC50 reported were calculated with the […] of a set of at least 3 experiences for each compound studied.

[2] = molecular target: T2, CCK-2 receptor (Cavia porcellus, UniProt H0VZC5); assay: Inhibition of the binding of [125I]-BH-CCK-8 to the cortical membrane of guinea pigs; set-up: species or system guinea pig; details: 120 minutes at 25° C.; 25 pM marked binder; at least 3 tests
T2 construct: The incubation of the cerebral membranes together with the radioactive tracers and the compounds under study; from tissue; host or cells: cerebral cortex membranes of male albino Hartley guinea pigs
T2 sequence (H0VZC5 1-426): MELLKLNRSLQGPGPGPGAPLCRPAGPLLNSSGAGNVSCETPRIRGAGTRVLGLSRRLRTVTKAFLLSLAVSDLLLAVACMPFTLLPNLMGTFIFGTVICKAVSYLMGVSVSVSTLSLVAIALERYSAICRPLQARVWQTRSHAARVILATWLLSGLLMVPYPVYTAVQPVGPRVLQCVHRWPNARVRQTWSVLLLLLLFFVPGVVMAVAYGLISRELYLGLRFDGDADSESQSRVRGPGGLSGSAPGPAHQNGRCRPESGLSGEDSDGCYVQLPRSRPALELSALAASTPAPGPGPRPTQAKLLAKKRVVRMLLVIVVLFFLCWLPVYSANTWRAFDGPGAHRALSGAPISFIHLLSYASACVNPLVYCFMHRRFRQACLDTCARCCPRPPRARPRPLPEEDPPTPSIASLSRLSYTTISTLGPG
Procedure: (§1) For this purpose binding tests were performed on cerebral cortex of male albino guinea pigs outbred from the Hartley strain, using as marked binder the [^125I]-BH-CCK-8 sulphate, according to the procedure described by Makovec F. [J. Med. Chem. 35, (1992),28].
(§2) The incubation of the cerebral membranes together with the radioactive tracers and the compounds under study was effected on multi-well plates for 120 minutes at 25° C. Each well contained membrane corresponding to about 0.5 mg of proteins/ml and 25 pM of marked binder in a total volume of 250 micro litres. The specific binding was determined as the difference between the binding in the absence and in the presence of CCK-8, 1.10^−6M. At the end of the incubation a rapid filtration of the plate was performed under vacuum and the radioactivity of the individual filters extracted from the wells was measured with a γ-emission counter. The results obtained are shown in Table 3, in which the tested compounds are indicated, the IC50 calculated with the regression method on a set of at least 3 tests for each compound studied and an index derived from the ratio of the affinity obtained for the two types of receptor CCK-2 and CCK-1.

[3] = test system: CCK-2 receptor; assay: as above; set-up: species or system guinea pig; details: IC50 CCK-2 (guinea pig cortex) / IC50 CCK-1 (rat pancreatic acini, Table 2)
Procedure: as §1, §2

Compound | IC50 [1] [nM] | also measured
O=C(Nc1ccccc1C(=O)NC(Cc1ccccc1)C(=O)O)c1cc2ccccc2[nH]1 (racemic) [Compound 1, 2 (R,S)-{2-[(1H-indol-2-carbonil)amino]-benzoilamino}-3-phnyl-propionic acid] | 240 | 
O=C(Nc1ccccc1C(=O)N[C@H](Cc1ccccc1)C(=O)O)c1cc2ccccc2[nH]1 [Compound 2, 2 (R)-{2-[(1H-indol-2-carbonyl)amino]-benzoylamino}-3-phenyl-propionic acid] | 110 | 
O=C(Nc1ccccc1C(=O)N[C@@H](Cc1ccccc1)C(=O)O)c1cc2ccccc2[nH]1 [Compound 3, 2(S)-{2-[(1H-indol-2-carbonyl)amino]-benzoylamino}-3-phenyl-propionic acid] | 7130 | 
O=C(Nc1ccc(Cl)cc1C(=O)NC(Cc1ccccc1)C(=O)O)c1cc2ccccc2[nH]1 (stereo not shown) [Compound 4] | 410 | 
Cn1c(C(=O)Nc2ccccc2C(=O)NC(Cc2ccccc2)C(=O)O)cc2ccccc21 (stereo not shown) [Compound 5] | 170 | 
O=C(Nc1ccccc1C(=O)NC(Cc1ccccc1)C(=O)O)c1cc2cc(F)ccc2[nH]1 (stereo not shown) [Compound 6] | 60 | IC50 [2]: 10600 nM; index derived from the ratio of the affinity obtained for the two types of receptor CCK-2 and CCK-1 [3]: 176.6
O=C(Nc1ccccc1C(=O)NC(Cc1ccccc1)C(=O)O)c1cc2ccc(F)cc2[nH]1 (stereo not shown) [Compound 7] | 160 | 
O=C(Nc1ccccc1C(=O)NC(Cc1ccccc1)C(=O)O)c1cc2cccc(F)c2[nH]1 (stereo not shown) [Compound 8] | 90 | 
O=C(Nc1ccccc1C(=O)NC(Cc1ccccc1)C(=O)O)c1cc2ccccc2o1 (stereo not shown) [Compound 9] | 520 | 
O=C(Nc1ccccc1C(=O)NC(Cc1ccccc1)C(=O)O)c1cc2ccccc2s1 (stereo not shown) [Compound 10] | 780 | 
Cc1ccccc1CC(NC(=O)c1ccccc1NC(=O)c1cc2ccccc2[nH]1)C(=O)O (stereo not shown) [Compound 11] | 160 | 
Cc1ccc(CC(NC(=O)c2ccccc2NC(=O)c2cc3ccccc3[nH]2)C(=O)O)cc1 (stereo not shown) [Compound 12] | 370 | 
O=C(Nc1ccccc1C(=O)NC(Cc1ccccc1Cl)C(=O)O)c1cc2ccccc2[nH]1 (stereo not shown) [Compound 13] | 270 | 
O=C(Nc1ccccc1C(=O)NC(Cc1cccc(Cl)c1)C(=O)O)c1cc2ccccc2[nH]1 (stereo not shown) [Compound 14] | 280 | 
O=C(Nc1ccccc1C(=O)NC(Cc1c(Cl)cccc1Cl)C(=O)O)c1cc2ccccc2[nH]1 (stereo not shown) [Compound 15] | 1410 | 
COc1cccc(CC(NC(=O)c2ccccc2NC(=O)c2cc3ccccc3[nH]2)C(=O)O)c1 (stereo not shown) [Compound 16] | 240 | 
O=C(Nc1ccccc1C(=O)NC(Cc1ccccc1[N+](=O)[O-])C(=O)O)c1cc2ccccc2[nH]1 (stereo not shown) [Compound 17] | 160 | 
O=C(Nc1ccccc1C(=O)NC(Cc1ccc([N+](=O)[O-])cc1)C(=O)O)c1cc2ccccc2[nH]1 (stereo not shown) [Compound 18] | 430 | 
O=C(Nc1ccccc1C(=O)NC(Cc1ccc(F)cc1)C(=O)O)c1cc2ccccc2[nH]1 (stereo not shown) [Compound 19] | 180 | 
O=C(Nc1ccccc1C(=O)N[C@@H](CCc1ccccc1)C(=O)O)c1cc2ccccc2[nH]1 [Compound 22] | 190 | 
O=C(Nc1ccccc1C(=O)NC(CCCc1ccccc1)C(=O)O)c1cc2ccccc2[nH]1 (stereo not shown) [Compound 24] | 90 | 
Cc1ccccc1CCC(NC(=O)c1ccccc1NC(=O)c1cc2ccccc2n1C)C(=O)O (stereo not shown) [Compound 27] | 30 | 
O=C(Nc1ccccc1C(=O)NC(CCc1ccccc1[N+](=O)[O-])C(=O)O)c1cc2ccccc2[nH]1 (stereo not shown) [Compound 28] | 120 | 
O=C(Nc1ccccc1C(=O)NC(CCc1ccc([N+](=O)[O-])cc1)C(=O)O)c1cc2ccccc2[nH]1 (stereo not shown) [Compound 29] | 120 | 

Compound | IC50 [1] [nM] | also measured
COc1cccc(CCC(NC(=O)c2ccccc2NC(=O)c2cc3ccccc3[nH]2)C(=O)O)c1 (stereo not shown) [Compound 31] | 10 | IC50 [2]: 3400 nM; index derived from the ratio of the affinity obtained for the two types of receptor CCK-2 and CCK-1 [3]: 340
COc1ccccc1CCC(NC(=O)c1ccccc1NC(=O)c1cc2cc(F)ccc2[nH]1)C(=O)O (stereo not shown) [Compound 32] | 9 | affinity for the CCK-1 receptors of the pancreatic acini of rat, in words ([1]; summary of Table 2): nanomolar level; IC50 [2]: 5680 nM; index derived from the ratio of the affinity obtained for the two types of receptor CCK-2 and CCK-1 [3]: 631.1
O=C(Nc1ccccc1C(=O)NC(C(=O)O)c1ccccc1)c1cc2ccccc2[nH]1 (stereo not shown) [Compound 33] | 260 | 
CC(NC(=O)c1ccccc1NC(=O)c1cc2ccccc2[nH]1)C(=O)O (stereo not shown) [Compound 34] | 1960 | 
CCC(NC(=O)c1ccccc1NC(=O)c1cc2ccccc2n1C)C(=O)O (stereo not shown) [Compound 35] | 3080 | 
CCCC(NC(=O)c1ccccc1NC(=O)c1cc2ccccc2n1C)C(=O)O (stereo not shown) [Compound 36] | 210 | 
CCCCC(NC(=O)c1ccccc1NC(=O)c1cc2ccccc2n1C)C(=O)O (stereo not shown) [Compound 37] | 170 | 
CCCCCC(NC(=O)c1ccccc1NC(=O)c1cc2ccccc2[nH]1)C(=O)O (stereo not shown) [Compound 38] | 10 | IC50 [2]: > 30000 nM; index derived from the ratio of the affinity obtained for the two types of receptor CCK-2 and CCK-1 [3]: >3000
CCCCCCC(NC(=O)c1ccccc1NC(=O)c1cc2ccccc2[nH]1)C(=O)O (stereo not shown) [Compound 39] | 20 | IC50 [2]: > 30000 nM; index derived from the ratio of the affinity obtained for the two types of receptor CCK-2 and CCK-1 [3]: >1500
CCCCCCCC(NC(=O)c1ccccc1NC(=O)c1cc2ccccc2[nH]1)C(=O)O (stereo not shown) [Compound 40] | 240 | 
CC(C)C(NC(=O)c1ccccc1NC(=O)c1cc2ccccc2[nH]1)C(=O)O (stereo not shown) [Compound 41] | 200 | IC50 [2]: 27400 nM; index derived from the ratio of the affinity obtained for the two types of receptor CCK-2 and CCK-1 [3]: 137
CC(C)CC(NC(=O)c1ccccc1NC(=O)c1cc2ccccc2[nH]1)C(=O)O (stereo not shown) [Compound 42] | 60 | 
CC(C)CCC(NC(=O)c1ccccc1NC(=O)c1cc2ccccc2[nH]1)C(=O)O (stereo not shown) [Compound 43] | 80 | 
CC(C)CCCC(NC(=O)c1ccccc1NC(=O)c1cc2ccccc2[nH]1)C(=O)O (stereo not shown) [Compound 44] | 40 | 
CC(C)CCCCC(NC(=O)c1ccccc1NC(=O)c1cc2ccccc2[nH]1)C(=O)O (stereo not shown) [Compound 45] | 140 | 
CCC(CC)CC(NC(=O)c1ccccc1NC(=O)c1cc2ccccc2[nH]1)C(=O)O (stereo not shown) [Compound 46] | 30 | IC50 [2]: 2670 nM; index derived from the ratio of the affinity obtained for the two types of receptor CCK-2 and CCK-1 [3]: 89
O=C(Nc1ccccc1C(=O)NC(CC1CCCCC1)C(=O)O)c1cc2ccccc2[nH]1 (stereo not shown) [Compound 48] | 20 | IC50 [2]: 1220 nM; index derived from the ratio of the affinity obtained for the two types of receptor CCK-2 and CCK-1 [3]: 61
O=C(Nc1ccccc1C(=O)NC(CCC1CCCCC1)C(=O)O)c1cc2ccccc2[nH]1 (stereo not shown) [Compound 49] | 40 | 
O=C(Nc1ccccc1C(=O)NC(CCCC1CCCCC1)C(=O)O)c1cc2ccccc2[nH]1 (stereo not shown) [Compound 50] | 170 | 
CSCCC(NC(=O)c1ccccc1NC(=O)c1cc2ccccc2[nH]1)C(=O)O (stereo not shown) [Compound 51] | 40 | 
O=C(Nc1ccccc1C(=O)NC(CSc1ccccc1)C(=O)O)c1cc2ccccc2[nH]1 (stereo not shown) [Compound 52] | 620 | 
O=C(Nc1ccccc1C(=O)NC(CSC12CC3CC(CC(C3)C1)C2)C(=O)O)c1cc2ccccc2[nH]1 (stereo not shown) [Compound 53] | 30 | 
O=C(NC(Cc1ccccc1)C(=O)O)c1ccccc1NC(=O)c1c[nH]c2ccccc12 (stereo not shown) [Compound 55] | 1950 | 
